{"source": "the supplement of paper PMC10627819", "experiment_in_all_cases": "fitness (endpoint OD595 vs no drug) (fraction); higher = more growth", "key": {"[1]": {"system": "S. aureus DSM 20231", "procedure,_shortened": "(§1)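 Bacterial fitness was scored as optical density at the stationary-phase transition relative to the robust mean of no-drug control wells. Scores are capped at 1. The growth data were OD595 readings every 30 min for 14 h at 37 °C, background-subtracted against the first reading, from 384-well plates inoculated at OD595 0.01 in TSB, LB Lennox or CY.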"}, "[2]": {"system": "S. aureus Newman", "procedure,_shortened": "as §1"}, "[3]": {"system": "S. pneumoniae D39V", "procedure,_shortened": "as §1"}, "[4]": {"settings": "first compound 0.625 µg/mL, partner 0.0156 µg/mL"}, "[5]": {"settings": "first compound 0.625 µg/mL, partner 0.0312 µg/mL"}, "[6]": {"settings": "first compound 0.625 µg/mL, partner 0.0625 µg/mL"}, "[7]": {"settings": "first compound 1.25 µg/mL, partner 0.0156 µg/mL"}, "[8]": {"settings": "first compound 1.25 µg/mL, partner 0.0312 µg/mL"}, "[9]": {"settings": "first compound 1.25 µg/mL, partner 0.0625 µg/mL"}, "[10]": {"settings": "first compound 2.5 µg/mL, partner 0.0156 µg/mL"}, "[11]": {"settings": "first compound 2.5 µg/mL, partner 0.0312 µg/mL"}, "[12]": {"settings": "first compound 2.5 µg/mL, partner 0.0625 µg/mL"}, "[13]": {"settings": "first compound 0.781 µg/mL, partner 0.0156 µg/mL"}, "[14]": {"settings": "first compound 0.781 µg/mL, partner 0.0312 µg/mL"}, "[15]": {"settings": "first compound 0.781 µg/mL, partner 0.0625 µg/mL"}, "[16]": {"settings": "first compound 1.562 µg/mL, partner 0.0156 µg/mL"}, "[17]": {"settings": "first compound 1.562 µg/mL, partner 0.0312 µg/mL"}, "[18]": {"settings": "first compound 1.562 µg/mL, partner 0.0625 µg/mL"}, "[19]": {"settings": "first compound 3.124 µg/mL, partner 0.0156 µg/mL"}, "[20]": {"settings": "first compound 3.124 µg/mL, partner 0.0312 µg/mL"}, "[21]": {"settings": "first compound 3.124 µg/mL, partner 0.0625 µg/mL"}}, "data": [{"smiles": "COc1cccc2c1C(=O)c1c(O)c3c(c(O)c1C2=O)C[C@@](O)(C(=O)CO)C[C@@H]3O[C@H]1C[C@H](N)[C@H](O)[C@H](C)O1", "note": "[Doxorubicin] + CO[C@@]12[C@H](COC(N)=O)C3=C(C(=O)C(C)=C(N)C3=O)N1C[C@@H]1N[C@@H]12 [Mitomycin C]", "values": [{"measurement": "fitness", "setting": "[1]; [4]", "value": 0.699}, {"measurement": "fitness", "setting": "[1]; [5]", "value": 0.659}, {"measurement": "fitness", "setting": "[1]; [6]", "value": 0.52}, {"measurement": "fitness", "setting": "[1]; [7]", "value": 0.697}, {"measurement": "fitness", "setting": "[1]; [8]", "value": 0.641}, {"measurement": "fitness", "setting": "[1]; [9]", "value": 0.496}, {"measurement": "fitness", "setting": "[1]; [10]", "value": 0.668}, {"measurement": "fitness", "setting": "[1]; [11]", "value": 0.61}, {"measurement": "fitness", "setting": "[1]; [12]", "value": 0.473}, {"measurement": "fitness", "setting": "[2]; [4]", "value": 0.669}, {"measurement": "fitness", "setting": "[2]; [5]", "value": 0.63}, {"measurement": "fitness", "setting": "[2]; [6]", "value": 0.531}, {"measurement": "fitness", "setting": "[2]; [7]", "value": 0.692}, {"measurement": "fitness", "setting": "[2]; [8]", "value": 0.699}, {"measurement": "fitness", "setting": "[2]; [9]", "value": 0.507}, {"measurement": "fitness", "setting": "[2]; [10]", "value": 0.672}, {"measurement": "fitness", "setting": "[2]; [11]", "value": 0.599}, {"measurement": "fitness", "setting": "[2]; [12]", "value": 0.408}, {"measurement": "fitness", "setting": "[3]; first compound 0.25 µg/mL, partner 0.001075 µg/mL", "value": 0.834}, {"measurement": "fitness", "setting": "[3]; first compound 0.25 µg/mL, partner 0.002 µg/mL", "value": 0.836}, {"measurement": "fitness", "setting": "[3]; first compound 0.25 µg/mL, partner 0.00215 µg/mL", "value": 0.838}, {"measurement": "fitness", "setting": "[3]; first compound 0.25 µg/mL, partner 0.004 µg/mL", "value": 0.707}, {"measurement": "fitness", "setting": "[3]; first compound 0.25 µg/mL, partner 0.0043 µg/mL", "value": 0.681}, {"measurement": "fitness", "setting": "[3]; first compound 0.25 µg/mL, partner 0.008 µg/mL", "value": 0.458}, {"measurement": "fitness", "setting": "[3]; first compound 0.5 µg/mL, partner 0.001075 µg/mL", "value": 0.842}, {"measurement": "fitness", "setting": "[3]; first compound 0.5 µg/mL, partner 0.002 µg/mL", "value": 0.822}, {"measurement": "fitness", "setting": "[3]; first compound 0.5 µg/mL, partner 0.00215 µg/mL", "value": 0.848}, {"measurement": "fitness", "setting": "[3]; first compound 0.5 µg/mL, partner 0.004 µg/mL", "value": 0.664}, {"measurement": "fitness", "setting": "[3]; first compound 0.5 µg/mL, partner 0.0043 µg/mL", "value": 0.671}, {"measurement": "fitness", "setting": "[3]; first compound 0.5 µg/mL, partner 0.008 µg/mL", "value": 0.435}, {"measurement": "fitness", "setting": "[3]; first compound 1 µg/mL, partner 0.001075 µg/mL", "value": 0.81}, {"measurement": "fitness", "setting": "[3]; first compound 1 µg/mL, partner 0.002 µg/mL", "value": 0.696}, {"measurement": "fitness", "setting": "[3]; first compound 1 µg/mL, partner 0.00215 µg/mL", "value": 0.783}, {"measurement": "fitness", "setting": "[3]; first compound 1 µg/mL, partner 0.004 µg/mL", "value": 0.632}, {"measurement": "fitness", "setting": "[3]; first compound 1 µg/mL, partner 0.0043 µg/mL", "value": 0.58}, {"measurement": "fitness", "setting": "[3]; first compound 1 µg/mL, partner 0.008 µg/mL", "value": 0.404}]}, {"smiles": "C[C@@H]1O[C@@H]1P(=O)(O)O", "note": "[Fosfomycin] + CO[C@@]12[C@H](COC(N)=O)C3=C(C(=O)C(C)=C(N)C3=O)N1C[C@@H]1N[C@@H]12 [Mitomycin C]", "values": [{"measurement": "fitness", "setting": "[1]; [13]", "value": 0.607}, {"measurement": "fitness", "setting": "[1]; [14]", "value": 0.57}, {"measurement": "fitness", "setting": "[1]; [15]", "value": 0.49}, {"measurement": "fitness", "setting": "[1]; [16]", "value": 0.494}, {"measurement": "fitness", "setting": "[1]; [17]", "value": 0.497}, {"measurement": "fitness", "setting": "[1]; [18]", "value": 0.35}, {"measurement": "fitness", "setting": "[1]; [19]", "value": 0.43}, {"measurement": "fitness", "setting": "[1]; [20]", "value": 0.318}, {"measurement": "fitness", "setting": "[1]; [21]", "value": 0.165}, {"measurement": "fitness", "setting": "[2]; [13]", "value": 0.576}, {"measurement": "fitness", "setting": "[2]; [14]", "value": 0.543}, {"measurement": "fitness", "setting": "[2]; [15]", "value": 0.373}, {"measurement": "fitness", "setting": "[2]; [16]", "value": 0.452}, {"measurement": "fitness", "setting": "[2]; [17]", "value": 0.363}, {"measurement": "fitness", "setting": "[2]; [18]", "value": 0.114}, {"measurement": "fitness", "setting": "[2]; [19]", "value": 0.124}, {"measurement": "fitness", "setting": "[2]; [20]", "value": 0.0839}, {"measurement": "fitness", "setting": "[2]; [21]", "value": 0.0142}, {"measurement": "fitness", "setting": "[3]; first compound 1.25 µg/mL, partner 0.001075 µg/mL", "value": 0.903}, {"measurement": "fitness", "setting": "[3]; first compound 1.25 µg/mL, partner 0.002 µg/mL", "value": 0.858}, {"measurement": "fitness", "setting": "[3]; first compound 1.25 µg/mL, partner 0.00215 µg/mL", "value": 0.843}, {"measurement": "fitness", "setting": "[3]; first compound 1.25 µg/mL, partner 0.004 µg/mL", "value": 0.793}, {"measurement": "fitness", "setting": "[3]; first compound 1.25 µg/mL, partner 0.0043 µg/mL", "value": 0.748}, {"measurement": "fitness", "setting": "[3]; first compound 1.25 µg/mL, partner 0.008 µg/mL", "value": 0.65}, {"measurement": "fitness", "setting": "[3]; first compound 2.5 µg/mL, partner 0.001075 µg/mL", "value": 0.869}, {"measurement": "fitness", "setting": "[3]; first compound 2.5 µg/mL, partner 0.002 µg/mL", "value": 0.812}, {"measurement": "fitness", "setting": "[3]; first compound 2.5 µg/mL, partner 0.00215 µg/mL", "value": 0.837}, {"measurement": "fitness", "setting": "[3]; first compound 2.5 µg/mL, partner 0.004 µg/mL", "value": 0.77}, {"measurement": "fitness", "setting": "[3]; first compound 2.5 µg/mL, partner 0.0043 µg/mL", "value": 0.734}, {"measurement": "fitness", "setting": "[3]; first compound 2.5 µg/mL, partner 0.008 µg/mL", "value": 0.648}, {"measurement": "fitness", "setting": "[3]; first compound 5 µg/mL, partner 0.001075 µg/mL", "value": 0.772}, {"measurement": "fitness", "setting": "[3]; first compound 5 µg/mL, partner 0.002 µg/mL", "value": 0.694}, {"measurement": "fitness", "setting": "[3]; first compound 5 µg/mL, partner 0.00215 µg/mL", "value": 0.733}, {"measurement": "fitness", "setting": "[3]; first compound 5 µg/mL, partner 0.004 µg/mL", "value": 0.617}, {"measurement": "fitness", "setting": "[3]; first compound 5 µg/mL, partner 0.0043 µg/mL", "value": 0.652}, {"measurement": "fitness", "setting": "[3]; first compound 5 µg/mL, partner 0.008 µg/mL", "value": 0.574}]}]}
